A word on the solubility: it is the dissolved amount per volume that the medium holds. As a reminder, the fraction unbound is free concentration divided by total concentration.

The values that follow come from US20250000869A1, “TOPICAL COMPOSITIONS OF 2-PHENYL-3, 4-DIHYDROPYRROLO [2, L-F] [1, 2, 4] TRIAZINONE DERIVATIVES AND USES THEREOF” (TOPADUR PHARMA AG, priority 2021, published 2025).

The nature of data set [1]: Solubility of Compound 1 in solvent systems comprising PEG400. It is filed as physicochemical. Conditions: room temperature, read-out: Determined Solubility. The source says:
A solubility study of Compound 1 in solvent systems comprising PEG400 in various concentrations was effected.

Another data set deals with uPAR−/− mice. As to the kind of experiment: Healing of full thickness excisional cutaneous wounds after topical, on wound administration. It is filed as in vivo. The source says: The urokinase-type plasminogen activator receptor deficient (uPAR−/−) mouse that reproduces cardinal features of SSc (dermal) vasculopathy and fibrosis is an animal model of systemic sclerosis that is considered as disease-relevant. The uPAR−/− mouse integrates apoptosis of dermal endothelial cells, a decreased density of dermal microvessels and endothelial to mesenchymal transition reflecting vasculopathy with dermal thickening, collagen accumulation, enhanced myofibroblast counts reflecting skin fibrosis. uPAR−/− induces and develops dermal and pulmonary fibrosis (Manetti M et al. Ann Rheum Dis. (2014) 73:1700-1709; Manetti M et al Ann Rheum Dis. (2017) 76:924-934; Schniering J et al., (2019) In Atlas of Ulcers in Systemic Sclerosis. Diagnosis and Management. Matucci-Cerinic M and Denton C P (eds). Springer, Chain, Switzerland, pp. 27-37).
uPAR−/− mice were bred from mating of heterozygotes (uPAR+/−; obtained from Institute for Translational Neurology and Neurology Clinics, University of Munster, Germany). Pups were genotyped and uPAR−/− mice obtained at Mendelian frequency. Two full thickness, excisional cutaneous wounds (6 mm diameter corresponding to an area of 28.3 mm^2) were generated, symmetrically to the dorsum midline. To this end, at the day before surgery, mice were anaesthetized with Isoflurane and their dorsum was shaved using Veet® depilatory cream and clippers. At the next following day, preoperative analgesia was administered at 30 min before surgery consisting of 0.1 mg/kg of Buprenorphine and 5 mg/kg of Ketoprofen. Animals were anesthetized with Isoflurane. Two full thickness wounds (including epidermis, dermis, hypodermis, panniculus carnosus; depth about 500 μm) of 6 mm diameter each were created using a biopsy punch and scissors each with identical, at least 10 mm distance left or right from the dorsum midline. To minimize wound contraction, wounds were splinted using a silicon splint (Grace Bio-Labs silicone wound splints, red with suture sites, outer diameter×inner diameter×thickness 14 mm×7 mm×0.5 mm). Splints were kept in place using six interrupted surgical sutures (6/0 polyamide-Ethylon) and Superglue (ethyl 2-cyanoacrylate glue) (Park S A et al. Wound Repair Regen. (2014) 22(3):368-380; Park S A et al. Wound Repair Regen. (2015) 23(2):251-261).
The cutaneous ulcers and the splint were protected using a plastic cover maintained using a non-woven adhesive dressing (Hypafix® (Smith & Nephew)) and a semiocclusive adhesive transparent dressing (Tegaderm™, (3M™)). Ketoprofen (5 mg/kg) and Buprenorphine (0.05 mg/kg) were administered for 3 days and then Buprenorphine (0.05 mg/kg) as needed. The estimated volume of a cutaneous ulcer was 28.3 mm^2 area×0.5 mm depth=14.15 mm^3 or 14.15 μl. […]

Data set [2] is described as follows: Plasma concentrations after topical, on wound administration (satellite study, LC-MS/MS). It is filed as in vivo, C57BL/6J mice. The method, then: In order to address the systemic exposure following topical, on wound administration of Compound 1, in a satellite study, plasma concentrations of Compound 1 was measured. To this end, eight male C57BL/6J mice (12 weeks of age, body weight 26.8±0.4 g (Mean±SD)) underwent surgery for generation of one full thickness, excisional, cutaneous wounds, in an identical procedure as described above. The study was performed in C57BL/6J mice due to limited availability of uPAR−/− mice. As described before, Compound 1 (in form of Topical Composition A2) was added in a dose volume of 25 μl to the wounds as a single dose. The dose related to body weight was approximately 0.565 μg/kg (from a total of 25 μl of 1 μM Compound 1 per mouse). Peripheral venous blood was sampled from the tail tip (or by cardiac puncture for the final sampling) in four mice at time points (min) 1, 5, 15, 30, 60 post administration of Compound 1 and in another four mice at time points (h) 1, 2, 4, 6, 24 post administration of Compound 1. Plasma was generated and Compound 1 measured by LC-MS/MS. The LLOQ for Compound 1 was at 800 pg/ml corresponding to 1.32 nM. […] Considering the plasma protein binding of Compound 1 in mice with unbound fractions (fu) of 0.08% for Compound 1 the unbound plasma concentrations should have been <[…] for Compound 1, corresponding to <[…] for Compound 1 when extrapolated to administration to two wounds per mice as this was done in the main efficacy study, under the assumption of dose linearity.

A further data set is described as follows: Plasma protein binding. It counts as in vitro ADME. Conditions: mouse, mice, read-out: unbound fraction (fu), plasma protein binding.
A further data set relates to rat aortic rings. Put plainly: Relaxation of rat aortic rings. As to conditions: earlier effected measurements.

Structures are written as SMILES. Like-named read-outs stand apart in the source and are kept apart here.

On to `CCCOc1ccc(S(=O)(=O)N2CCC(CCO[N+](=O)[O-])CC2)cc1-c1nn2c(CCC)c(/C=N/O)c(C)c2c(=O)[nH]1` [Compound 1, 2-[1-(3-{6-[(1E)-(hydroxyimino)methyl]-5-methyl-4-oxo-7-propyl-3H,4H-pyrrolo[2,1-f][1,2,4]triazin-2-yl}-4-propoxybenzenesulfonyl)piperidin-4-yl]ethyl nitrate], for which the solubility in data set [1] (aqueous with cosolvent or surfactant or cyclodextrin, PEG400:benzyl alcohol:phosphate buffer (44:1:55) vol:vol, Phosphate buffer 12 mmol/L pH 6.7) was found to be 0.000861 mg/mL; in data set [1] (aqueous with cosolvent or surfactant or cyclodextrin, PEG400:benzyl alcohol:phosphate buffer (49:1:50) vol:vol, Phosphate buffer 12 mmol/L pH 6.7) it was 0.00218 mg/mL; in data set [1] (aqueous with cosolvent or surfactant or cyclodextrin, PEG400:benzyl alcohol:phosphate buffer (54:1:45) vol:vol, Phosphate buffer 12 mmol/L pH 6.7), 0.005 mg/mL; in data set [1] (aqueous with cosolvent or surfactant or cyclodextrin, PEG400:benzyl alcohol:phosphate buffer (59:1:40) vol:vol, Phosphate buffer 12 mmol/L pH 6.7) it was 0.0128 mg/mL; in data set [1] (aqueous with cosolvent or surfactant or cyclodextrin, PEG400:benzyl alcohol:phosphate buffer (64:1:35) vol:vol, Phosphate buffer 12 mmol/L pH 6.7), 0.037 mg/mL; in data set [1] (aqueous with cosolvent or surfactant or cyclodextrin, PEG400:benzyl alcohol:phosphate buffer (69:1:30) vol:vol, Phosphate buffer 12 mmol/L pH 6.7), 0.112 mg/mL. Further, the solubility in data set [1] (aqueous with cosolvent or surfactant or cyclodextrin, PEG400:benzyl alcohol:phosphate buffer (79:1:20) vol:vol, Phosphate buffer 12 mmol/L pH 6.7) turned out to be 0.882 mg/mL; in data set [1] (aqueous with cosolvent or surfactant or cyclodextrin, PEG400:benzyl alcohol:phosphate buffer (89:1:10) vol:vol, Phosphate buffer 12 mmol/L pH 6.7), 1.77 mg/mL; in data set [1] (organic solvent or mixture, PEG400:benzyl alcohol (99:1) vol:vol) it was 12.7 mg/mL. Besides, in the data set with uPAR−/− mice (uPAR−/− mice, based on means of % Wound Closure from day 5 to day 8), the “acceleration of wound closure versus Vehicle” value is listed as “about 1 day”. For the same molecule, in the data set on uPAR−/− mice (uPAR−/− mice, day 0-7), the “AUEC for % wound closure compared to vehicle” value is recorded as “significant increase”. Moreover, the “healing of full thickness excisional cutaneous wounds (conclusion)” value with uPAR−/− mice (uPAR−/− mice, once daily topical, in form of Topical Composition A2) is “improved”. In the data set on uPAR−/− mice (uPAR−/− vs uPAR+/+ mice, from AUEC (Table 6)), the “part of wound closure delay associated with uPAR deficiency restored” value is recorded as “about half”. Moreover, in data set [2] (assumption of dose linearity), the “unbound plasma concentration extrapolated to two wounds per mice” value was under 2.12 µM. For the same molecule, the unbound plasma concentration in data set [2] (calculated from LLOQ and fu, one wound per mouse) is under 1.06 µM. The “plasma concentration of Compound 1” value in data set [2] (single on wound dose 25 μl Topical Composition A2 (approx. 0.565 μg/kg), 1 min to 24 h, all time points and mice, LLOQ 800 pg/ml) is under 0.00132 µM. Moreover, in “Plasma protein binding”, the fraction unbound turned out to be 0.0008. The “IC40 for relaxation of rat aortic rings” value with rat aortic rings came out at 8 µM.
